According to US20240043435A1, “TYK-2 INHIBITOR” (BEIGENE, LTD., priority 2020, published 2024):
Read-outs that look alike come from different tables or passages of the source.

Legend:
[1] = biological target: T1, JAK1-JH2 protein (aa 561-860, in-house) (Homo sapiens, UniProt P23458); experiment: JAK1-JH2 biochemical assay (HTRF probe displacement); type: binding
T1 construct: JAK1-JH2 protein (aa 561-860, in-house); made in house
Protocol: Assay B: JAK1-JH2 Biochemical Assay
Compounds disclosed herein were tested for blocking of JAK1-JH2 protein (aa 561-860, in-house) with its probe in an assay based on Homogeneous Time Resolved Fluorescence. Compound dilution is done according to the following protocol: (1) Prepare 500× compounds solution in DMSO from 500 uM by 5-fold dilution, total 10 doses were included; (2) Prepare 10× compounds solution in an assay buffer containing 20 mM HEPES, pH 7.5, 10 mM MgCl2, 0.005% BSA, 2 mM DTT, 0.015% Brij-35 by transferring 1 μl serial 500× stock solution into 49 μl assay buffer. 4 μL of 1.17 nM recombinant JAK1-JH2 protein was pre-incubated with 1 μl of 10× serial dilution of compounds at room temperature for 0.5 hour. […] The HTRF signals (ex337 nm, em620 nm/665 nm) were read on BMG PHERAstar FS instrument. The inhibition percentage of JAK1 interaction with its probe in presence of increasing concentrations of compounds was calculated based on the ratio of fluorescence at 615 nm to that at 665 nm. The IC50 for each compound was derived from fitting the data to the four-parameter logistic equation by Dotmatics.

[2] = biological target: T2, TYK2-JH2 (aa 575-869, in-house) protein (Homo sapiens, UniProt P29597); experiment: TYK2-JH2 biochemical assay (HTRF probe displacement); type: binding; conditions: for Selectivity fold (TYK2/JAK1): JAK1-JH2 IC50 vs TYK2-JH2 IC50
T2 construct: TYK2-JH2 (aa 575-869, in-house) protein; made in house
T2 sequence (P29597 575-869): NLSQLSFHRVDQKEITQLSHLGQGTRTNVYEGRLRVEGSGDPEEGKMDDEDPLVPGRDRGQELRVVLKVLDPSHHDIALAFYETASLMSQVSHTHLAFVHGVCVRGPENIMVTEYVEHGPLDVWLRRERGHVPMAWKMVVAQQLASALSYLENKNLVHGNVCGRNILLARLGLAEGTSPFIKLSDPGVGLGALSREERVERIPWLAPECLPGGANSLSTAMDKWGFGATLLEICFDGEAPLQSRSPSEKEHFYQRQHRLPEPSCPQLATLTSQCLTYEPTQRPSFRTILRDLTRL
Method in brief: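 HTRF probe-displacement format: compound dilutions (10 points, 5-fold, from 500 uM in DMSO at 500×) were combined with 0.2 nM TYK2-JH2 protein for 0.5 h at room temperature in HEPES pH 7.5 buffer with MgCl2, BSA, DTT and Brij-35. Percent inhibition came from the 615/665 nm fluorescence ratio, fitted to a four-parameter logistic for IC50.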

[3] = system: JAK2, TYK2/p-STAT4 (Tyr693) activated by IL-12 in NK-92 cell line; experiment: IL-12-JAK2, TYK2/p-STAT4 (Tyr693) inhibition IC50 cellular assay; type: cell-based; conditions: for Selectivity fold (TYK2/JAK2): Cellular assay, pSTAT5/GM-CSF IC50 vs pSTAT4/IL-12 IC50; for IC50: NK92, Cellular assay, read-out: pSTAT4/IL-12 IC50
Method in brief: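 p-STAT4 (Tyr693) in lysates was measured by AlphaLISA SureFire Ultra after a 30 min IL-12 challenge (40 ng/ml final) at 37° C. Overnight-starved, IL-2-free NK-92 cells had been pretreated 1 h with compound at 10000 to 0.61 nM (4-fold, 8 points). IC50 values came from four-parameter logistic fitting.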

[4] = system: pSTAT5/GM-CSF; experiment: pSTAT5/GM-CSF cellular assay (JAK2 selectivity); type: cell-based
[5] = Mouse PK study, oral administration; type: in vivo, male CD-1 mouse
Protocol: Biological Assay: Mouse PK Study
The pharmacokinetics of compounds were evaluated in male CD-1 mouse via Oral Administration (dose of 10 mg/kg). For oral administration study, test compounds were added in 0.5% MC in water and administrated to mice at 10 mg/kg by gavage. Blood was collected into EDTA-K2 anticoagulant tube at 15, and 30 min and 1, 2, 4, 8 and 24 h after administration. Approximately 30 μL blood was collected at each time point. And then the blood was centrifuged at 2000 g for 5 min at 4° C. using a centrifuge to obtain the plasma. The plasma sample was transferred into a tube and stored in a freezer at approximately −70° C. until the determination of concentration by LC-MS/MS. Pharmacokinetic parameters were estimated by using WinNonlin software (version 8.1, Pharsight Corporation, CA, USA) with non-compartmental method. The following pharmacokinetic parameters were calculated, whenever possible from the plasma concentration-time data: Tmax, Cmax, AUClast, AUCinf, T1/2 for PO administration. All animals were fasted before experiment.

[6] = Biochemical assay, read-out: TYK2-JH2 IC50
[7] = read-out: Tyk2 JH2 domain bio-chemical potency
[8] = Po dosing (10 mg/kg), male CD-1 mouse
[9] = male, CD-1, plasma, Po 10 mg/kg mouse
[10] = plasma, Po dosing (10 mg/kg), male CD-1 mouse, read-out: Cmax

T1 sequence (P23458 561-860): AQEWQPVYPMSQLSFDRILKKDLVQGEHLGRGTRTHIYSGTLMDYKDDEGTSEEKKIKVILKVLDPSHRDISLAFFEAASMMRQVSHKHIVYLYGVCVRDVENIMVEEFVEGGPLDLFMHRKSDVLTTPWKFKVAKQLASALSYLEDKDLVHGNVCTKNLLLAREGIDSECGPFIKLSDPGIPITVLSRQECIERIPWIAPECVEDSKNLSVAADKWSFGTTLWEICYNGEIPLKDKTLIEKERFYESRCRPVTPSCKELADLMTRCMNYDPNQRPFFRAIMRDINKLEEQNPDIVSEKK

IC50 [1]	Selectivity fold (TYK2/JAK1) ([2]; Biochemical assay)	IC50 [2, 6]	IC50 [3]	IC50 [4]	SMILES	Selectivity fold (TYK2/JAK2) [3]	further results
1.4 nM	87.5 fold	0.016 nM	2.6 nM	> 10000 nM	CC(=O)Nc1cc(Nc2cccc(S(C)(=O)=O)c2)c(-c2ccc(C(C)(C)O)cn2)cn1 [Example H1, N-(5-(2-hydroxypropan-2-yl)-4′-((3-(methylsulfonyl)phenyl)amino)-[2,3′-bipyridin]-6′-yl)acetamide]	>3846 fold	–
–	–	0.026 nM	1.82 nM	> 10000 nM	COc1cc(Nc2cc(NC(C)=O)ncc2-c2ccc(F)cn2)nc(S(C)(=O)=O)c1 [Example F22, N-(5-fluoro-4′-((4-methoxy-6-(methylsulfonyl)pyridin-2-yl)amino)-[2,3′-bipyridin]-6′-yl)acetamide]	>5494 fold	AUClast [5, 8]: 2098 ng·h/mL; T1/2 [5, 8]: 1.48 h; AUC [5, 9]: 2100 ng·h/mL; Cmax [5, 10]: 911 ng/mL
–	–	0.026 nM	0.53 nM	1820 nM	COc1cc(Nc2cc(NC(C)=O)ncc2-c2ccc3c(n2)OCC(C)(C)O3)nc(S(C)(=O)=O)c1 [Example Q25, N-(5-(2,2-dimethyl-2,3-dihydro-[1,4]dioxino[2,3-b]pyridin-6-yl)-4-((4-methoxy-6-(methylsulfonyl)pyridin-2-yl)amino)pyridin-2-yl)acetamide]	–	AUC and Cmax fold higher than those of Example F22 and H11 ([5]; Po 10 mg/kg mouse): at least 3 fold; AUClast [5, 8]: 16245 ng·h/mL; T1/2 [5, 8]: 3.01 h; AUC [5, 9]: 16200 ng·h/mL; Cmax [5, 10]: 2820 ng/mL; Selectivity fold (TYK2/JAK2) ([4]; pSTAT5/GM-CSF IC50 over pSTAT4/IL-12 IC50): 3437 fold
–	–	0.027 nM	1 nM	> 10000 nM	COc1cc(Nc2cc(NC(C)=O)ncc2-c2ccc(C(C)(C)O)cn2)nc(S(C)(=O)=O)c1 [Example H11, N-(5-(2-hydroxypropan-2-yl)-4′-((4-methoxy-6-(methylsulfonyl)pyridin-2-yl)amino)-[2,3′-bipyridin]-6′-yl)acetamide]	>10000 fold	AUClast [5, 8]: 19.3 ng·h/mL; Cmax [5, 8]: 8.73 ng/mL; T1/2 [5, 8]: 2.07 h; AUC [5, 9]: 19.4 ng·h/mL; Cmax ([5]; male, CD-1, plasma, Po 10 mg/kg mouse, read-out: Cmax): 7 ng/mL

The next lines start with the compound.

SMILES	IC50 [1]	Selectivity fold (TYK2/JAK1) ([2]; Biochemical assay)	IC50 [2, 6]	IC50 [3]	IC50 [4]	Selectivity fold (TYK2/JAK2) [3]	further results
CC(=O)Nc1cc(Nc2ccccc2)c(-c2ccccn2)cn1 [Example B3, N-(4′-(phenylamino)-[2,3′-bipyridin]-6′-yl)acetamide]	9 nM	8.1 fold	1.1 nM	–	–	–	–
CC(=O)Nc1cc(Nc2ncccc2S(C)(=O)=O)c(-c2ccccn2)cn1 [Example B14, N-(4′-((3-(methylsulfonyl)pyridin-2-yl)amino)-[2,3′-bipyridin]-6′-yl)acetamide]	145 nM	1 fold	80 nM	–	–	–	fold less potent (orth vs meta methylsulfonyl; B15 vs B1, B14 vs B5) ([2]; Tyk2 JH2 bio-chemical potency): 5000 fold
CC(=O)Nc1cc(Nc2cccc(S(C)(=O)=O)n2)c(-c2ccccn2)cn1 [Example B5, N-(4′-((6-(methylsulfonyl)pyridin-2-yl)amino)-[2,3′-bipyridin]-6′-yl)acetamide]	0.31 nM	19 fold	–	0.243 nM	> 10000 nM	>41152 fold	fold more potent than Example B1 in cellular assay [3]: 40 fold; fold more potent than Example B1 in bio-chemical assay [2]: 2 fold; IC50 [2, 7]: 0.016 nM
CC(=O)Nc1cc(Nc2cccc(S(C)(=O)=O)c2)c(-c2cc(C)nc(C)n2)cn1 [Example A6, N-(5-(2,6-dimethylpyrimidin-4-yl)-4-((3-(methylsulfonyl)phenyl)amino)pyridin-2-yl)acetamide]	18 nM	128 fold	0.14 nM	51 nM	> 10000 nM	>196 fold	–
CC(=O)Nc1cc(Nc2cccc(S(C)(=O)=O)c2)c(-c2cnc(C)cn2)cn1 [Example A4, N-(5-(5-methylpyrazin-2-yl)-4-((3-(methylsulfonyl)phenyl)amino)pyridin-2-yl)acetamide]	59 nM	113 fold	0.52 nM	–	–	–	–
CS(=O)(=O)c1cccc(Nc2cc(NC(=O)C3CC3)ncc2-c2ccccn2)c1 [Example B20, N-(4′-((3-(methylsulfonyl)phenyl)amino)-[2,3′-bipyridin]-6′-yl)cyclopropanecarboxamide]	76 nM	50 fold	1.5 nM	–	–	–	Tyk2 inhibition potency on replacing R methyl (Example B1) by cyclopropane ([2]; compared with Example B1): dramatically decreased
CC(=O)Nc1cc(Nc2cccc(S(C)(=O)=O)c2)c(-c2ccc(N3CCOCC3=O)cn2)cn1 [Example G1, N-(4′-((3-(methylsulfonyl)phenyl)amino)-5-(3-oxomorpholino)-[2,3′-bipyridin]-6′-yl)acetamide]	4.9 nM	–	0.026 nM	14.4 nM	> 10000 nM	–	Selectivity fold (TYK2/JAK1) ([1]; JAK1-JH2 vs TYK2-JH2): 188 fold; Selectivity fold (TYK2/JAK2) ([4]; pSTAT5/GM-CSF vs pSTAT4/IL-12): >694 fold
CC(=O)Nc1cc(Nc2cccc(S(C)(=O)=O)c2)c(-c2cccnn2)cn1 [Example A1, N-(4-((3-(methylsulfonyl)phenyl)amino)-5-(pyridazin-3-yl)pyridin-2-yl)acetamide]	15 nM	288 fold	0.052 nM	79.5 nM	> 10000 nM	>125 fold	–
CC(=O)Nc1cc(Nc2cccc(S(C)(=O)=O)c2)c(-c2ccccn2)cn1 [Example B1, N-(4′-((3-(methylsulfonyl)phenyl)amino)-[2,3′-bipyridin]-6′-yl)acetamide]	7.4 nM	194 fold	–	9.89 nM	> 10000 nM	>1011 fold	IC50 [2, 7]: 0.038 nM
CC(=O)Nc1cc(Nc2cccc(S(C)(=O)=O)c2)c(C2CCCO2)cn1 (stereo not drawn) [Example A2, N-[4-[(3-methanesulfonylphenyl)amino]-5-(oxolan-2-yl)pyridin-2-yl]acetamide]	828 nM	159 fold	5.2 nM	–	–	–	–
COc1cccc(Nc2cc(NC(C)=O)ncc2-c2ccccn2)c1 [Example B13, N-(4′-((3-methoxyphenyl)amino)-[2,3′-bipyridin]-6′-yl)acetamide]	18 nM	42 fold	0.43 nM	183 nM	> 10000 nM	>54 fold	–
CS(=O)(=O)c1cccc(Nc2cc(N)ncc2-c2ccccn2)c1 [Example B19, N4′-(3-(methylsulfonyl)phenyl)-[2,3′-bipyridine]-4′,6′-diamine]	257 nM	14.2 fold	18 nM	–	–	–	–
CC(=O)Nc1cc(Nc2cccc(S(C)(=O)=O)c2)c(-c2cnccn2)cn1 [Example A5, N-(4-((3-(methylsulfonyl)phenyl)amino)-5-(pyrazin-2-yl)pyridin-2-yl)acetamide]	59 nM	120 fold	0.49 nM	–	–	–	–
